For one assay, the target named is T1, AXL (Homo sapiens, UniProt P30530).
T1 sequence (P30530 26-894): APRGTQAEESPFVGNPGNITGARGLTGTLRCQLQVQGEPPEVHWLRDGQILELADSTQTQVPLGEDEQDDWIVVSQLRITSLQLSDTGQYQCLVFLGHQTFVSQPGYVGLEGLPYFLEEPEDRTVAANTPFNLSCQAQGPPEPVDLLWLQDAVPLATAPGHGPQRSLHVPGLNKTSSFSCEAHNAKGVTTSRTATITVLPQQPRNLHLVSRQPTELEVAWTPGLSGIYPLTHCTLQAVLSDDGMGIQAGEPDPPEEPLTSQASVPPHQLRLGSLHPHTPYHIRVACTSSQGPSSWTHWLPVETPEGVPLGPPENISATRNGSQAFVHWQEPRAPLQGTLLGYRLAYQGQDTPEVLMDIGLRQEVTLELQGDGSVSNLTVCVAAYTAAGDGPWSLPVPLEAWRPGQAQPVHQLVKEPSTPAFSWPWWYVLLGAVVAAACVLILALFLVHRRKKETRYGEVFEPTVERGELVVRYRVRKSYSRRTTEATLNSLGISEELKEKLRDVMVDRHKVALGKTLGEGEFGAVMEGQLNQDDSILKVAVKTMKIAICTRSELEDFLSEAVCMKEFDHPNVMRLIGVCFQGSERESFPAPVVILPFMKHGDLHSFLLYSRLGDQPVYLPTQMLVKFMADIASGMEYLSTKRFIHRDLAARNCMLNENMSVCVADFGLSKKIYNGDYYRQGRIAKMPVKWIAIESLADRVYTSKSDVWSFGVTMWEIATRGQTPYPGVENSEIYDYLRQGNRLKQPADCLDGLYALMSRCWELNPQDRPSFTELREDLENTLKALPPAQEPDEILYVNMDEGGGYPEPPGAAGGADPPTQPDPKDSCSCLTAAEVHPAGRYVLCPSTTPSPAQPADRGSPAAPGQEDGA
Briefly: TR-FRET kinase activity assay, AXL. Format: biochemical. The settings on record: ATP at Km, 60 minutes. The method, boiled down:
(§1)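 IC50 came from TR-FRET signal after 30 min dark development with a Europium-labeled phospho-specific antibody. This followed a 60 min RT reaction, stopped with EDTA, started with ATP at Km per enzyme. Peptide substrate, enzyme and compound were premixed in HEPES pH 7.5 buffer with MgCl2, EGTA, Brij 35 and DTT.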
On the technique in general: TR-FRET usually uses a lanthanide donor and a delayed reading to cut background.

The target of the next assay is T2, FLT3 (Homo sapiens, UniProt P36888).
T2 sequence (P36888 27-993): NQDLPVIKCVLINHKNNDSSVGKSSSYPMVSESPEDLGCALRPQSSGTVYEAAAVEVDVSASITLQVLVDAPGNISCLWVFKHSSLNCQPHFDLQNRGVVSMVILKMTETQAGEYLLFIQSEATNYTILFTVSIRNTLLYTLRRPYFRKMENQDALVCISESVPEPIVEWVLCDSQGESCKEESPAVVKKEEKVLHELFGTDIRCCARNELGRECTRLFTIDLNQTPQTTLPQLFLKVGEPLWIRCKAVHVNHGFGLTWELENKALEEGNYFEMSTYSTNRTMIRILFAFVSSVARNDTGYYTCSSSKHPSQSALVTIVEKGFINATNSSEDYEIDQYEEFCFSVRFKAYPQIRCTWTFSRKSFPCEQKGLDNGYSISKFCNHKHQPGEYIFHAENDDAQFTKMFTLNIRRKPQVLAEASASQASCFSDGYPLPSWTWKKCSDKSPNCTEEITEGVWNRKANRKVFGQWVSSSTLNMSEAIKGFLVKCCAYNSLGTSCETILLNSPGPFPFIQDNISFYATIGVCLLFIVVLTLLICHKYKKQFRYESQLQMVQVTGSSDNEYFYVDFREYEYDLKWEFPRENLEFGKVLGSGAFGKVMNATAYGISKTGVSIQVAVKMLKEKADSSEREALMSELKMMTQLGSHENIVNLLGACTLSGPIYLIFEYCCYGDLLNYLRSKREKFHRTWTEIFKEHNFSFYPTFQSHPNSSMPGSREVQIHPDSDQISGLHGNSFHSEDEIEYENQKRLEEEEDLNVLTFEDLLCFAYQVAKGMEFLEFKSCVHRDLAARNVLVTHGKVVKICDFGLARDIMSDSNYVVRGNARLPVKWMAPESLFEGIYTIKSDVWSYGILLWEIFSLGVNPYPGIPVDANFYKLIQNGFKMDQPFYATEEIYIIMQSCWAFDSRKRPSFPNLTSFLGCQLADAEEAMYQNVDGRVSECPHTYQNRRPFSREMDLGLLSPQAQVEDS
As to the kind of experiment: TR-FRET kinase activity assay, FLT3. As to conditions: ATP at Km, 60 minutes. In kind it is biochemical. The method, boiled down:
as §1

Our source for the IC50 values is patent US20200291018A1, “TAM KINASE INHIBITORS” (SYROS PHARMACEUTICALS, INC., priority 2017, published 2020).

As a reminder, the IC50 is the concentration needed to halve the response being measured. Read a low IC50 as inhibition by little substance. Consider `COC[C@H](C)Nc1ncc2c(O[C@H]3CCN(C)C(C)(C)C3)ncc([C@H]3CC[C@H](O)CC3)c2n1` [Compound 384], for which the figures for the IC50 against AXL and at FLT3 were 100 to 1000 nM and 1000 to 10000 nM, respectively.

As for `COC[C@H](C)Nc1ncc2c(O[C@@H]3CCN(C)C(C)(C)C3)ncc([C@H]3CC[C@H](O)CC3)c2n1` [Compound 385], the IC50 at AXL is 100 to 1000 nM; against FLT3 it was 1000 to 10000 nM.

As for `C[C@@H](CC(F)(F)F)Nc1ncc2c(OC3CC(C)(C)N(C)C(C)(C)C3)ncc([C@H]3CC[C@H](O)CC3)c2n1` [Compound 386], the IC50 on AXL was not above 100 nM; against FLT3, 100 to 1000 nM.

As for `COC[C@H](C)Nc1ncc2c(OC3C[C@H](C)N(C)[C@@H](C)C3)ncc([C@H]3CC[C@H](O)CC3)c2n1` (some centres unmarked) [Compound 387], the IC50 against AXL lay in the range of 100 to 1000 nM; against FLT3, 1000 to 10000 nM.

On to `COC[C@H](C)Nc1ncc2c(OC3C[C@@H](C)N(C)[C@H](C)C3)ncc([C@H]3CC[C@H](O)CC3)c2n1` (some centres unmarked) [Compound 388], for which the results for the IC50 on AXL and against FLT3 were 100 to 1000 nM and 1000 to 10000 nM, respectively.

For `C[C@@H](CC(F)(F)F)Nc1ncc2c(OC3CCN(S(C)(=O)=O)CC3)ncc([C@H]3CC[C@H](O)CC3)c2n1` [Compound 389], the concentration for half-maximal inhibition (IC50) lay in the range of 100 to 1000 nM at AXL and 1000 to 10000 nM at FLT3.

Turning to `COCCN1C(C)(C)CC(Oc2ncc([C@H]3CC[C@H](O)CC3)c3nc(N[C@@H]4CCOC4)ncc23)CC1(C)C` [Compound 390], the IC50 against AXL is 100 to 1000 nM; at FLT3, 1000 to 10000 nM.

For `CCN1C(C)(C)CC(Oc2ncc([C@H]3CC[C@H](O)CC3)c3nc(N[C@@H](C)CC(F)(F)F)ncc23)CC1(C)C` [Compound 391], the IC50 at AXL was not above 100 nM; against FLT3, 100 to 1000 nM.

In the case of `O[C@H]1CC[C@H](c2cnc(OC3CCOCC3)c3cnc(Nc4ccc(-c5nn[nH]n5)cc4)nc32)CC1` [Compound 392], the results for the IC50 on AXL and against FLT3 were not above 100 nM and 100 to 1000 nM, respectively.

On to `COC[C@H](C)Nc1ncc2c(O[C@H]3C[C@@H](C(=O)N4CCN(C)CC4)C3)ncc([C@H]3CC[C@H](O)CC3)c2n1` [Compound 393], for which the half-inhibitory concentration (IC50) at AXL was in the range of 100 to 1000 nM; against FLT3, 1000 to 10000 nM.

As to `C[C@@H](Nc1ncc2c(OC3CCOCC3)ncc([C@H]3CC[C@H](O)CC3)c2n1)C(F)F` [Compound 394], the 50% inhibitory concentration (IC50) fell in the range of 100 to 1000 nM at AXL and 1000 to 10000 nM against FLT3.

For `COC[C@H](C)Nc1ncc2c(OC3CCOCC3)ncc(-c3ccc(F)cc3)c2n1` [Compound 395], the IC50 against AXL and against FLT3 was 1000 to 10000 nM in each case.

Consider `COC[C@H](C)Nc1ncc2c(OC3CCOCC3)ncc(-c3ccc(C#N)cc3)c2n1` [Compound 396], for which the IC50 against AXL and against FLT3 was 1000 to 10000 nM throughout.

As for `O=C(O)c1ccc(Nc2ncc3c(OC4CCOCC4)ncc([C@H]4CC[C@H](O)CC4)c3n2)cc1` [Compound 397], the IC50 on AXL and at FLT3 was not above 100 nM throughout.

Regarding `CNC(=O)c1ccc(Nc2ncc3c(OC4CCOCC4)ncc([C@H]4CC[C@H](O)CC4)c3n2)cc1` [Compound 398], the IC50 against AXL and against FLT3 was 100 to 1000 nM in each case.

With `NC(=O)c1ccc(Nc2ncc3c(OC4CCOCC4)ncc([C@H]4CC[C@H](O)CC4)c3n2)cc1` [Compound 399], the IC50 on AXL and at FLT3 was not above 100 nM in each case.

Take `COC[C@H](C)Nc1ncc2c(OC3CCOCC3)ncc(-c3ccc(S(C)(=O)=O)cc3)c2n1` [Compound 400]: the IC50 on AXL and on FLT3 was 1000 to 10000 nM in each case.

For `C[C@H](CF)Nc1ncc2c(OC3CCOCC3)ncc([C@H]3CC[C@H](O)CC3)c2n1` [Compound 401], the half-inhibitory concentration (IC50) at AXL was 100 to 1000 nM; against FLT3, 1000 to 10000 nM.

For `C[C@@H](CC(F)(F)F)Nc1ncc2c(O[C@H]3C[C@@H](CN4CCOCC4)C3)ncc([C@H]3CC[C@H](O)CC3)c2n1` [Compound 402], the 50% inhibitory concentration (IC50) at AXL was not above 100 nM; against FLT3, 100 to 1000 nM.

`COC[C@H](C)Nc1ncc2c(C(F)(F)F)ncc([C@H]3CC[C@H](O)CC3)c2n1` [Compound 403]: the IC50 against AXL and at FLT3 was 1000 to 10000 nM each time.

In the case of `CC1(Nc2ncc3c(OC4CCOCC4)ncc(-c4cccc(NS(C)(=O)=O)c4)c3n2)CC1` [Compound 404], the IC50 lay in the range of 100 to 1000 nM on AXL and 1000 to 10000 nM at FLT3.

On to `CC1(Nc2ncc3c(OC4CCOCC4)ncc(-c4cccc(S(=O)(=O)N5CCC5)c4)c3n2)CC1` [Compound 405], for which the IC50 at AXL was 100 to 1000 nM; against FLT3 it was 1000 to 10000 nM.

Turning to `C[C@H](CC(F)(F)F)Nc1ncc2c(O[C@H]3C[C@@H](O)C3)ncc([C@H]3CC[C@H](O)CC3)c2n1` [Compound 406], the half-maximal inhibitory concentration (IC50) against AXL and at FLT3 was 1000 to 10000 nM in each case.

As for `C[C@@H](COC(F)F)Nc1ncc2c(O[C@H]3C[C@@H](O)C3)ncc([C@H]3CC[C@H](O)CC3)c2n1` [Compound 407], the IC50 was in the range of 100 to 1000 nM on AXL and 1000 to 10000 nM against FLT3.

For the compound `C[C@@H](CC(F)(F)F)Nc1ncc2c(O[C@H]3C[C@@H](N4CCOCC4)C3)ncc([C@H]3CC[C@H](O)CC3)c2n1` [Compound 408], the IC50 against AXL and against FLT3 was 100 to 1000 nM in each case.

For the compound `C[C@@H](CC(F)(F)F)Nc1ncc2c(O[C@H]3C[C@@H](O)C3)ncc(-c3ccc(C4(C#N)CC4)cc3)c2n1` [Compound 409], the IC50 against AXL is 1000 to 10000 nM; against FLT3 it was 100 to 1000 nM.

Consider `O=C(O)[C@H]1CC[C@H](Nc2ncc3c(OC4CCOCC4)ncc([C@H]4CC[C@H](O)CC4)c3n2)CC1` [Compound 410], for which the IC50 against AXL and against FLT3 was 1000 to 10000 nM throughout.

As to `C[C@H](Nc1ncc2c(O[C@H]3C[C@@H](O)C3)ncc([C@H]3CC[C@H](O)CC3)c2n1)C(F)F` [Compound 411], the results for the half-maximal inhibitory concentration (IC50) at AXL and against FLT3 were 100 to 1000 nM and 1000 to 10000 nM, respectively.

For `C[C@@H](CC(F)(F)F)Nc1ncc2c(O[C@@H]3C[C@H]4CC[C@@H](C3)N4C[C@H]3CCCO3)ncc([C@H]3CC[C@H](O)CC3)c2n1` [Compound 412], the IC50 on AXL and against FLT3 was not above 100 nM throughout.

Regarding `C[C@@H](CC(F)(F)F)Nc1ncc2c(O[C@@H]3C[C@H]4CC[C@@H](C3)N4[C@H]3CCOC3)ncc([C@H]3CC[C@H](O)CC3)c2n1` [Compound 413], the IC50 against AXL and against FLT3 was not above 100 nM throughout.

Turning to `C[C@@H](CC(F)(F)F)Nc1ncc2c(O[C@@H]3C[C@H]4CC[C@@H](C3)N4C[C@H]3CCOC3)ncc([C@H]3CC[C@H](O)CC3)c2n1` [Compound 414], the IC50 at AXL and on FLT3 was not above 100 nM each time.

With `C[C@@H](CC(F)(F)F)Nc1ncc2c(O[C@@H]3C[C@H]4CC[C@@H](C3)N4[C@@H]3CCOC3)ncc([C@H]3CC[C@H](O)CC3)c2n1` [Compound 415], the IC50 at AXL was not above 100 nM; at FLT3 it was 100 to 1000 nM.

Regarding `C[C@@H](CC(F)(F)F)Nc1ncc2c(O[C@@H]3C[C@H]4CC[C@@H](C3)N4C[C@@H]3CCOC3)ncc([C@H]3CC[C@H](O)CC3)c2n1` [Compound 416], the IC50 at AXL and on FLT3 was not above 100 nM each time.

For the compound `CO[C@H]1C[C@@H]1Nc1ncc2c(O[C@H]3C[C@@H](O)C3)ncc([C@H]3CC[C@H](O)CC3)c2n1` [Compound 417], the figures for the IC50 against AXL and against FLT3 were not above 100 nM and 100 to 1000 nM, respectively.
